Assay results published in PubChem BioAssay (NCI).
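These data come from cells grown in 96-well plates and exposed to compound for 48 hours at five concentrations. GI50 marks 50% less growth. Definition used: TGI = concentration required for complete inhibition of growth.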

How the values were obtained:
Test in all cases: growth of human tumour cells (NCI), 48 h
[1] = tested on: MOLT-4 leukemia
[2] = tested on: UACC-257 melanoma
[3] = tested on: HCC-2998 colon
[4] = tested on: HCT-15 colon
[5] = tested on: OVCAR-5 ovarian
[6] = tested on: HOP-62 NSCLC
[7] = tested on: SK-OV-3 ovarian
[8] = tested on: HCT-116 colon
[9] = tested on: HT29 colon
[10] = tested on: MALME-3M melanoma
[11] = tested on: HS 578T breast
[12] = tested on: OVCAR-4 ovarian
[13] = tested on: PC-3 prostate
[14] = tested on: RPMI-8226 leukemia
[15] = tested on: OVCAR-8 ovarian
[16] = tested on: SK-MEL-28 melanoma
[17] = tested on: COLO 205 colon
[18] = tested on: RXF 393 renal
[19] = tested on: SF-295 CNS
[20] = tested on: SN12C renal
[21] = tested on: MDA-MB-231 breast
[22] = tested on: M14 melanoma
[23] = tested on: SNB-19 CNS
[24] = tested on: NCI-H460 lung
[25] = tested on: SK-MEL-5 melanoma
[26] = tested on: SF-539 CNS
[27] = tested on: IGROV1 ovarian
[28] = tested on: BT-549 breast
[29] = tested on: DU-145 prostate
[30] = tested on: SF-268 CNS
[31] = tested on: T-47D breast
[32] = tested on: U251 CNS
[33] = tested on: LOX IMVI melanoma
[34] = tested on: OVCAR-3 ovarian
[35] = tested on: UACC-62 melanoma
[36] = tested on: NCI-H522 lung
[37] = tested on: TK-10 renal
[38] = tested on: NCI-H226 lung
[39] = tested on: UO-31 renal
[40] = tested on: SNB-75 CNS
[41] = tested on: HL-60(TB) leukemia
[42] = tested on: CCRF-CEM leukemia
[43] = tested on: SW-620 colon
[44] = tested on: NCI-H23 lung
[45] = tested on: A498 renal
[46] = tested on: NCI/ADR-RES ovarian
[47] = tested on: 786-0 renal
[48] = tested on: K-562 leukemia
[49] = tested on: HOP-92 NSCLC
[50] = tested on: KM12 colon
[51] = tested on: MCF7 breast
[52] = tested on: A549 NSCLC
[53] = tested on: SK-MEL-2 melanoma
[54] = tested on: SR leukemia
[55] = tested on: MDA-MB-435
[56] = tested on: EKVX NSCLC

CSC1=C(N)C(=O)c2[nH]cc(CO)c2C1=N
GI50 [1]: 204 nM | TGI [1]: 475 nM | GI50 [2]: 134 nM | TGI [2]: 267 nM | GI50 [3]: 173 nM | TGI [3]: 338 nM | GI50 [4]: 163 nM | TGI [4]: 382 nM | GI50 [5]: 176 nM | TGI [5]: 326 nM | GI50 [6]: 193 nM | TGI [6]: 342 nM | GI50 [7]: 623 nM | TGI [7]: 1850 nM | GI50 [8]: 256 nM | TGI [8]: 666 nM | GI50 [9]: 161 nM | TGI [9]: 498 nM | GI50 [10]: 71.4 nM | TGI [10]: 192 nM | GI50 [11]: 282 nM | TGI [11]: 796 nM | GI50 [12]: 123 nM | TGI [12]: 249 nM | GI50 [13]: 212 nM | TGI [13]: 916 nM | GI50 [14]: 293 nM | TGI [14]: 1200 nM | GI50 [15]: 275 nM | TGI [15]: 948 nM | GI50 [16]: 267 nM | TGI [16]: 618 nM | GI50 [17]: 75.5 nM | TGI [17]: 222 nM | GI50 [18]: 281 nM | TGI [18]: 850 nM | GI50 [19]: 159 nM | TGI [19]: 309 nM | GI50 [20]: 160 nM | TGI [20]: 317 nM | GI50 [21]: 236 nM | TGI [21]: 669 nM | GI50 [22]: 139 nM | TGI [22]: 285 nM | GI50 [23]: 155 nM | TGI [23]: 295 nM | GI50 [24]: 154 nM | TGI [24]: 338 nM | GI50 [25]: 45.1 nM | TGI [25]: 164 nM | GI50 [26]: 171 nM | TGI [26]: 309 nM | GI50 [27]: 225 nM | TGI [27]: 521 nM | GI50 [28]: 171 nM | TGI [28]: 313 nM | GI50 [29]: 166 nM | TGI [29]: 308 nM | GI50 [30]: 246 nM | TGI [30]: 873 nM | GI50 [31]: 264 nM | TGI [31]: 644 nM | GI50 [32]: 181 nM | TGI [32]: 347 nM | GI50 [33]: 134 nM | TGI [33]: 283 nM | GI50 [34]: 134 nM | TGI [34]: 346 nM | GI50 [35]: 159 nM | TGI [35]: 314 nM | GI50 [36]: 155 nM | TGI [36]: 364 nM | GI50 [37]: 1370 nM | TGI [37]: 2720 nM | GI50 [38]: 206 nM | TGI [38]: 450 nM | GI50 [39]: 154 nM | TGI [39]: 295 nM | GI50 [40]: 165 nM | TGI [40]: 307 nM | GI50 [41]: 222 nM | TGI [41]: 514 nM | GI50 [42]: 223 nM | TGI [42]: 762 nM | GI50 [43]: 198 nM | TGI [43]: 422 nM | GI50 [44]: 109 nM | TGI [44]: 344 nM | GI50 [45]: 132 nM | TGI [45]: 269 nM | GI50 [46]: 239 nM | TGI [46]: 781 nM | GI50 [47]: 1440 nM | TGI [47]: 3240 nM | GI50 [48]: 221 nM | TGI [48]: 534 nM | GI50 [49]: 499 nM | TGI [49]: 2300 nM | GI50 [50]: 418 nM | TGI [50]: 2200 nM | GI50 [51]: 160 nM | TGI [51]: 407 nM | GI50 [52]: 136 nM | TGI [52]: 331 nM | GI50 [53]: 211 nM | TGI [53]: 503 nM | GI50 [54]: 221 nM | TGI [54]: 659 nM | GI50 [55]: 47.3 nM | TGI [55]: 165 nM | GI50 [56]: 260 nM | TGI [56]: 1220 nM
